From US5998366A, “Method for ameliorating glutamic acid decarboxylase associated autoimmune disorders” (The Regents of the University of California, priority 1997, dated 1999)

Key:
[1] = tested on: IDDM associated autoantibodies; assay: ELISA of patient and control sera on plate-bound human GAD65 peptides; format: binding; conditions: none of the control sera
Text: A set of peptides (20-23 amino acids in length, with 5 aa overlaps) that span the human GAD65 molecule were synthesized to determine whether sera from most individuals at risk, pre-IDDM and with IDDM (in contrast to healthy controls) do in fact produce antibodies that differentially recognize GAD65 linear epitopes distributed throughout the molecule.
Patient sera and most control sera were those used in a previous study (Kaufman, et al., J. Clin. Investigation, supra) All samples were coded and tested in a blind manner. Peptides were synthesized using an automatic instrument (Applied Biosystems, Foster City, Calif.) and standard conditions. Peptides were dissolved in 60 mM sodium bicarbonate buffer (pH 9.6) at 20 ug/ml and 100 ul of each was added to duplicated wells of a 96 well Nunc-Immuno Plate. Peptides were allowed to bind at 4° C. overnight. The plates were then washed three times with PBS+0.1% Tween 20 (wash buffer), after which the plates were pre-absorbed with 3% BSA in sodium bicarbonate buffer for 0.5 hours at 37° C., or at room temperature overnight. The plates were then washed 5 times with the above wash buffer. 100 ul of serum at a 1/300 dilution in PBS+0.1% Tween 20 and 1% BSA was added to each well and antibodies were allowed to bind for 1 hour at 37° C. […] The color development was measured at 410 nm using an ELISA plate reader (ICN, Biomedicals, Costa Mesa, Calif.). […]

autoantibodies to GAD65 = assay: Immunoprecipitation of 35S-GAD65 by sera drawn before IDDM onset; format: binding, human; conditions: sera drawn 3 to 66 months before IDDM onset
Procedure: 5. Islet Cell Extractions and Immunoprecipitations. Islet cells were extracted as previously described by Atkinson, et al. (Lancet, 335:1357-1360, 1990) with the following modifications. […] Following another incubation with protein A Sepharose CL-4B (1 h, 4° C.), the complexes were then washed 5 times with 50 mM Tris HCL (pH 7.4) with 0.1% SDS, 1.0% Triton X-114, and 2 mM EDTA, and then washed again one time in double distilled water. The protein A Sepharose CL-4B was then boiled in Laemmli sample buffer (Laemmli, Nature, 227:680-685, 1970), and the samples were subjected to SDS-PAGE and fluororadiography (Kodak, X-omat AR5) using Enhance (New England Nuclear). Alternatively, the autoradiographs were analyzed by a BETAGEN (Boston, Mass.) analyzer. Both 64 KA positive and negative sera were used in each assay, to serve as interassay controls. All fluororadiographs were analyzed and rated as positive or negative after comparison with the known interassay controls.
A similar rating procedure was employed for the intensity of bands corresponding to immunoprecipitated ^35 S-GAD65 and ^35 S-GAD67.
6. Immunoprecipitations. […]
8. […] After sonication, cell debris was removed by centrifugation and protein concentration was measured (Bradford, Anal.Biochem., 72:248, […]) in the supernatant (supernatant was stored in aliquots at -70° C.).

Molecule: KPCSCSKVDVNYAFLHATDL [Peptide 6]
- share of patients recognizing the peptide [1]: 25-37%

B1: ^35 S-GAD65: 35S-labeled rat GAD65 produced in a bacterial expression system (protein, UniProt Q05683 1-585, looked up)
Glutamate decarboxylase 2: MASPGSGFWSFGSEDGSGDPENPGTARAWCQVAQKFTGGIGNKLCALLYGDSEKPAESGGSVTSRAATRKVACTCDQKPCSCPKGDVNYALLHATDLLPACEGERPTLAFLQDVMNILLQYVVKSFDRSTKVIDFHYPNELLQEYNWELADQPQNLEEILTHCQTTLKYAIKTGHPRYFNQLSTGLDMVGLAADWLTSTANTNMFTYEIAPVFVLLEYVTLKKMREIIGWPGGSGDGIFSPGGAISNMYAMLIARYKMFPEVKEKGMAAVPRLIAFTSEHSHFSLKKGAAALGIGTDSVILIKCDERGKMIPSDLERRILEVKQKGFVPFLVSATAGTTVYGAFDPLLAVADICKKYKIWMHVDAAWGGGLLMSRKHKWKLNGVERANSVTWNPHKMMGVPLQCSALLVREEGLMQSCNQMHASYLFQQDKHYDLSYDTGDKALQCGRHVDVFKLWLMWRAKGTTGFEAHIDKCLELAEYLYNIIKNREGYEMVFDGKPQHTNVCFWFVPPSLRVLEDNEERMSRLSKVAPVIKARMMEYGTTMVSYQPLGDKVNFFRMVISNPAATHQDIDFLIEEIERLGQDL
modifications: 35S label
notes: 35S-labeled rat GAD65 produced in a bacterial expression system
- specimens immunoreactive with the labeled protein (autoantibodies to GAD65): 9 out of 12
